From patent publication US6057364A, “Fluoro-substituted adamantane derivatives” (Pfizer Inc, priority 1998, dated 2000)

Experiment: metabolic stability in liver microsomes (standard microsomal incubation, LC/MS)
Assay type: in vitro ADME
Settings: 10 μM compound, 0.2 μM microsomal cytochrome P450, pH 7.4, 37° C, read-out: % Loss (amount of compound that was metabolically degraded)
Description: The metabolic stability of the active compounds may be assessed according to the following procedure. A standard microsomal incubation condition is prepared for assessing the rate of metabolism of the active compound in liver microsomes. The microsomal incubation condition comprises 100 mM potassium phosphate buffer (pH 7.4), 10 mM MgCl2, 0.5 mM NADP^+ (nicotinamide adenine dinucleotide phosphate) 4 mM glucose 6 phosphate, 10 unit/mL glucose 6 phosphate dehydrogenase, 0.2 μM microsomal cytochrome P450, and 10 μM active compound. The incubation is started by adding substrate to the reaction mixture that has been preincubated for approximately 3 minutes at 37° C. An aliquot is removed at 0, 1, 2, 5, 10, and 20 minute time points and added to an equal volume of methanol to quench the reaction. The precipitate in the samples is removed by centrifugation and the supernatants are stored at -20° C. The samples are analyzed by standard LC/MS to determine the amount of active compound that has been metabolically degraded.
The compounds illustrated in the chemical formula provided for the Table above were prepared as described in PCT published patent application WO 95/29909, which was published Nov. 9, 1995, entitled "Novel Acyclic And Cyclic Amides As Neurotransmitter Release Enhancers." The compounds illustrated above are pharmaceutically active compounds that enhance the release of neurotransmitters such as acetylcholine, dopamine and serotonin, and therefore are useful for treating Alzheimer's disease, age-associated memory impairment, Parkinson's disease and other central nervous system disorders in mammals, in particular humans. The metabolic stability of the above compounds was assessed according to the procedure described above. The metabolic stability of the above compounds is provided in the above table in the column marked "% Loss" which indicates the amount of compound that was metabolically degraded after 10 minutes in a standard microsomal incubation condition which was prepared as described above.

metabolised at 10 min, 10 µM	Structure (SMILES)
> 75%	O=C1CC(Cc2ccncc2)(Cc2ccncc2)C(=O)N1C12CC3CC(CC(C3)C1)C2 [H H H, reference compound]
75%	O=C1CC(Cc2ccncc2)(Cc2ccncc2)C(=O)N1C12CC3CC(CC(F)(C3)C1)C2 [F H H]
75%	O=C1CC(Cc2ccncc2)(Cc2ccncc2)C(=O)N1C12CC3CC(F)(CC(F)(C3)C1)C2 [F F H]
10%	O=C1CC(Cc2ccncc2)(Cc2ccncc2)C(=O)N1C12CC3(F)CC(F)(CC(F)(C3)C1)C2 [F F F]
